Test results: PubChem BioAssay AID1259407 (Chemical Carcinogenesis Research Information System (CCRIS), 2018)
The source made the active and inactive calls. No rule for the calls is given here.

Test system: CCRIS mutagenicity, Ames/micronucleus/aberration tests
Test: CCRIS mutagenicity studies
[1] = Test System: AMES SALMONELLA TYPHIMURIUM, Strain/Indicator: TA1538, Metabolic Activation: NONE, Method: STANDARD PLATE

For `c1ccc2[nH]c(-c3cscn3)nc2c1`, the mutagenic call (End Point: IN VITRO MICRONUCLEUS, Test System: HUMAN LYMPHOBLASTOID WTK1 CELLS, Metabolic Activation: NONE) was “active; positive; uva radiation was 250 uw/cm2”, the mutagenic call (End Point: IN VITRO MICRONUCLEUS, Test System: V79 CELLS, Metabolic Activation: NONE) was “active; positive” and the mutagenic call (Test System: AMES SALMONELLA TYPHIMURIUM, Strain/Indicator: TA97, Metabolic Activation: NONE, BACTERIA IRRADIATED IN PRESENCE OF TEST COMPOUND WITH UVA FOR 10 MIN, TRANSFERRED TO MEDIUM, Metabolic Activation: NONE, BACTERIA IRRADIATED IN PRESENCE OF TEST COMPOUND WITH UVA FOR 10 MIN, TRANSFERRED TO MEDIUM, Method: STANDARD PLATE) was “active; positive; uva was 250 uw/cm2”. The mutagenic call (Test System: AMES SALMONELLA TYPHIMURIUM, Strain/Indicator: TA98, Metabolic Activation: HAMSTER, LIVER, S-9, AROCLOR 1254 (5 OR 30%), Method: PREINCUBATION) was “inactive; negative”, the mutagenic call (Test System: AMES SALMONELLA TYPHIMURIUM, Strain/Indicator: TA98, Metabolic Activation: HAMSTER, LIVER, S-9, AROCLOR 1254 (10%), Method: PREINCUBATION) was “active; positive” and the mutagenic call (Test System: AMES SALMONELLA TYPHIMURIUM, Strain/Indicator: TA98, Metabolic Activation: NONE, BACTERIA IRRADIATED IN PRESENCE OF TEST COMPOUND WITH UVA FOR 10 MIN, TRANSFERRED TO MEDIUM, Metabolic Activation: NONE, BACTERIA IRRADIATED IN PRESENCE OF TEST COMPOUND WITH UVA FOR 10 MIN, TRANSFERRED TO MEDIUM, Method: STANDARD PLATE) was “active; positive; response was just barely positive; uva was 250 uw/cm2”. For the same compound, the mutagenic call (Test System: AMES SALMONELLA TYPHIMURIUM, Strain/Indicator: TA98, Metabolic Activation: NONE, Method: PREINCUBATION) was “inactive; negative”, the mutagenic call (Test System: AMES SALMONELLA TYPHIMURIUM, Strain/Indicator: TA98, Metabolic Activation: RAT, LIVER, S-9, AROCLOR 1254 (30%), Method: PREINCUBATION) was “inactive; negative” and the mutagenic call (Test System: AMES SALMONELLA TYPHIMURIUM, Strain/Indicator: TA100, Metabolic Activation: HAMSTER, LIVER, S-9, AROCLOR 1254 (30%), Method: PREINCUBATION) was “inactive; negative”. The mutagenic call (Test System: AMES SALMONELLA TYPHIMURIUM, Strain/Indicator: TA100, Metabolic Activation: NONE, BACTERIA IRRADIATED IN PRESENCE OF TEST COMPOUND WITH UVA FOR 10 MIN, TRANSFERRED TO MEDIUM, Metabolic Activation: NONE, BACTERIA IRRADIATED IN PRESENCE OF TEST COMPOUND WITH UVA FOR 10 MIN, TRANSFERRED TO MEDIUM, Method: STANDARD PLATE) was “active; positive; uva was 250 uw/cm2”, the mutagenic call (Test System: AMES SALMONELLA TYPHIMURIUM, Strain/Indicator: TA100, Metabolic Activation: NONE, Method: PREINCUBATION) was “inactive; negative” and the mutagenic call (Test System: AMES SALMONELLA TYPHIMURIUM, Strain/Indicator: TA100, Metabolic Activation: RAT, LIVER, S-9, AROCLOR 1254 (30%), Method: PREINCUBATION) was “inactive; negative”. The mutagenic call (Test System: AMES SALMONELLA TYPHIMURIUM, Strain/Indicator: TA104, Metabolic Activation: NONE, BACTERIA IRRADIATED IN PRESENCE OF TEST COMPOUND WITH UVA FOR 10 MIN, TRANSFERRED TO MEDIUM, Metabolic Activation: NONE, BACTERIA IRRADIATED IN PRESENCE OF TEST COMPOUND WITH UVA FOR 10 MIN, TRANSFERRED TO MEDIUM, Method: STANDARD PLATE) was “active; positive; uva was 250 uw/cm2” and the mutagenic call (Test System: E. COLI, Strain/Indicator: WP2S/PKM101, Metabolic Activation: NONE, BACTERIA IRRADIATED IN PRESENCE OF TEST COMPOUND WITH UVA FOR 10 MIN, TRANSFERRED TO MEDIUM, Metabolic Activation: NONE, BACTERIA IRRADIATED IN PRESENCE OF TEST COMPOUND WITH UVA FOR 10 MIN, TRANSFERRED TO MEDIUM, Method: STANDARD PLATE) was “active; positive; uva was 250 uw/cm2”.

For `CN(C)CCCn1cc[n+](C)c1/C=N/O`, the mutagenic call (Test System: AMES SALMONELLA TYPHIMURIUM, Strain/Indicator: TA97, Metabolic Activation: NONE, Method: STANDARD PLATE) was “inactive; negative”, the mutagenic call (Test System: AMES SALMONELLA TYPHIMURIUM, Strain/Indicator: TA97, Metabolic Activation: RAT, LIVER, S-9, Method: STANDARD PLATE) was “inactive; negative” and the mutagenic call (Test System: AMES SALMONELLA TYPHIMURIUM, Strain/Indicator: TA100, Metabolic Activation: NONE, Method: STANDARD PLATE) was “inactive; negative”. The mutagenic call (Test System: AMES SALMONELLA TYPHIMURIUM, Strain/Indicator: TA100, Metabolic Activation: RAT, LIVER, S-9, Method: STANDARD PLATE) was “inactive; negative”, the mutagenic call (Test System: AMES SALMONELLA TYPHIMURIUM, Strain/Indicator: TA104, Metabolic Activation: NONE, Method: STANDARD PLATE) was “inactive; negative” and the mutagenic call (Test System: AMES SALMONELLA TYPHIMURIUM, Strain/Indicator: TA104, Metabolic Activation: RAT, LIVER, S-9, Method: STANDARD PLATE) was “inactive; negative”. For the same compound, the mutagenic call (Test System: AMES SALMONELLA TYPHIMURIUM, Strain/Indicator: TA1537, Metabolic Activation: NONE, Method: STANDARD PLATE) was “inactive; negative”, the mutagenic call (Test System: AMES SALMONELLA TYPHIMURIUM, Strain/Indicator: TA1537, Metabolic Activation: RAT, LIVER, S-9, Method: STANDARD PLATE) was “inactive; negative” and the mutagenic call [1] was “inactive; negative”. The mutagenic call (Test System: AMES SALMONELLA TYPHIMURIUM, Strain/Indicator: TA1538, Metabolic Activation: RAT, LIVER, S-9, Method: STANDARD PLATE) was “inactive; negative”.

In the case of `Cc1cc(=O)oc2c3c4c(cc12)CCCN4CCC3`, the mutagenic call [1] is reported as “inactive; negative” and the mutagenic call (Test System: AMES SALMONELLA TYPHIMURIUM, Strain/Indicator: TA1538, Metabolic Activation: RAT, LIVER, S-9, AROCLOR 1254, Method: STANDARD PLATE) is reported as “active; positive”.

In the case of `c1cc(-c2ccncc2)ccn1`, the mutagenic call (Test System: AMES SALMONELLA TYPHIMURIUM, Strain/Indicator: TA97, Metabolic Activation: RAT, LIVER, S-9, PHENOBARBITAL, Method: STANDARD PLATE) is reported as “inactive; negative”, the mutagenic call (Test System: AMES SALMONELLA TYPHIMURIUM, Strain/Indicator: TA97, Metabolic Activation: RAT, LIVER, S-9, SODIUM PHENOBARBITAL, Method: PREINCUBATION) is reported as “active; positive” and the mutagenic call (Test System: AMES SALMONELLA TYPHIMURIUM, Strain/Indicator: TA98, Metabolic Activation: RAT, LIVER, S-9, PHENOBARBITAL, Method: STANDARD PLATE) is reported as “inactive; negative”. The mutagenic call (Test System: AMES SALMONELLA TYPHIMURIUM, Strain/Indicator: TA100, Metabolic Activation: RAT, LIVER, S-9, PHENOBARBITAL, Method: STANDARD PLATE) was “inactive; negative”, the mutagenic call (Test System: AMES SALMONELLA TYPHIMURIUM, Strain/Indicator: TA100, Metabolic Activation: RAT, LIVER, S-9, SODIUM PHENOBARBITAL, Method: PREINCUBATION) was “active; positive” and the mutagenic call (Test System: AMES SALMONELLA TYPHIMURIUM, Strain/Indicator: TA1535, Metabolic Activation: RAT, LIVER, S-9, PHENOBARBITAL, Method: STANDARD PLATE) was “inactive; negative”. The mutagenic call (Test System: AMES SALMONELLA TYPHIMURIUM, Strain/Indicator: TA1537, Metabolic Activation: RAT, LIVER, S-9, PHENOBARBITAL, Method: STANDARD PLATE) was “active; positive” and the mutagenic call (Test System: AMES SALMONELLA TYPHIMURIUM, Strain/Indicator: TA1538, Metabolic Activation: RAT, LIVER, S-9, PHENOBARBITAL, Method: STANDARD PLATE) was “inactive; negative”.
